Columns and labels:
Type in all cases: functional
[1] = tested on: Rattus norvegicus; test: Number of rats protected at a dose of 30 mg/Kg when given oral at 1 hr upon maximal electroshock seizure; Total number of rats = 4
[2] = tested on: Rattus norvegicus; test: Number of rats protected at a dose of 30 mg/Kg when given oral at 2 hr upon maximal electroshock seizure; Total number of rats = 4
[3] = tested on: Rattus norvegicus; test: Number of rats protected at a dose of 30 mg/Kg when given oral at 4 hr upon maximal electroshock seizure; Total number of rats = 4
[4] = tested on: Rattus norvegicus; test: Number of rats protected at a dose of 30 mg/Kg when given oral at 0.5 hr upon maximal electroshock seizure; Total number of rats = 4
[5] = tested on: Rattus norvegicus; test: Number of rats protected at a dose of 30 mg/Kg when given oral at 0.25 hr upon maximal electroshock seizure; Total number of rats = 4
[6] = tested on: Mus musculus; test: Minimum dose required for anticonvulsant activity when given i.p., at 4 hr in mice upon maximal electroshock seizure
[7] = tested on: Mus musculus; test: Minimum dose required for anticonvulsant activity when given i.p., at 0.5 hr in mice upon maximal electroshock seizure
[8] = tested on: Mus musculus; test: Minimum dose required for anticonvulsant activity when given i.p., at 0.5 hr in mice upon neurotoxicity seizure using rotarod test
[9] = tested on: Mus musculus; test: Minimum dose required for anticonvulsant activity when given i.p., at 0.5 hr in mice upon subcutaneous pentylenetetrazole seizure
[10] = tested on: Mus musculus; test: Minimum dose required for anticonvulsant activity when given i.p., at 0.5 hr in mice upon subcutaneous strychnine seizure
[11] = tested on: Mus musculus; test: Minimum dose required for anticonvulsant activity when given i.p., at 2 hr in mice upon subcutaneous strychnine seizure

Compound	Activity [1]	Activity [2]	Activity [3]	Activity [4]	Activity [5]	MES [6]	MES [7]	NT [8]	PTZ seizure [9]	STY seizure [10]	STY seizure [11]
Cc1cccc(C)c1NC(=O)NN=C(c1ccccc1)c1ccccc1	1	1	0	1	1	300 mg/kg	100 mg/kg	300 mg/kg	300 mg/kg	300 mg/kg	–
C/C(=N\NC(=O)Nc1c(C)cccc1C)c1ccc([N+](=O)[O-])cc1	2	3	1	2	1	300 mg/kg	300 mg/kg	300 mg/kg	300 mg/kg	100 mg/kg	300 mg/kg
Cc1cccc(C)c1NC(=O)N/N=C/c1ccccc1	3	3	4	3	1	100 mg/kg	100 mg/kg	300 mg/kg	300 mg/kg	30 mg/kg	100 mg/kg
Cc1cccc(C)c1NC(=O)N/N=C\c1ccco1	1	4	3	2	0	300 mg/kg	100 mg/kg	300 mg/kg	300 mg/kg	100 mg/kg	300 mg/kg
C/C(=N\NC(=O)Nc1c(C)cccc1C)c1ccccc1	4	3	3	2	1	300 mg/kg	100 mg/kg	–	300 mg/kg	30 mg/kg	100 mg/kg
Cc1cccc(C)c1NC(=O)NN=C1CCCC1	1	3	1	2	2	300 mg/kg	100 mg/kg	300 mg/kg	300 mg/kg	–	–
C/C(=N\NC(=O)Nc1c(C)cccc1C)c1cccc(N)c1	1	2	3	3	1	300 mg/kg	100 mg/kg	300 mg/kg	–	100 mg/kg	300 mg/kg
Cc1cccc(C)c1NC(=O)NN=C(Cc1ccccc1)Cc1ccccc1	1	0	0	1	0	300 mg/kg	300 mg/kg	300 mg/kg	–	300 mg/kg	–
Cc1cccc(C)c1NC(=O)NN=C1CCCCC1	2	4	3	1	1	300 mg/kg	100 mg/kg	300 mg/kg	–	100 mg/kg	300 mg/kg
C/C(=N\NC(=O)Nc1c(C)cccc1C)c1ccccc1O	2	3	4	1	3	300 mg/kg	100 mg/kg	–	300 mg/kg	100 mg/kg	300 mg/kg
C/C(CC(C)C)=N/NC(=O)Nc1c(C)cccc1C	2	4	2	2	1	300 mg/kg	100 mg/kg	–	–	30 mg/kg	100 mg/kg

From ChEMBL document CHEMBL1141099, “Discovery of N-(2,6-dimethylphenyl)-substituted semicarbazones as anticonvulsants: hybrid pharmacophore-based design” (2005)
